Square brackets hold non-standard residues; d marks the D form. Peptide text beside a SMILES is read from it.
Assays:
[1] = system: human whole blood; assay: Cytokine release in human whole blood stimulated 3 days with PHA-L or CD3/CD28 antibodies; assay type: cell-based; conditions: human whole blood, 1, 3, 10 μM
Experimental: Whole blood from human healthy volunteers was collected using a venipuncture connected to a pre-labeled vacuum tube containing sodium citrate. Tubes are gently mixed by inversion 7-8 times; and are then kept at RT until stimulation. 350 μl of RPMI+P/S were added into 1.2 ml-96-well plate. 10 times concentrated of SEQ ID NO: 172 was prepared in RPMI+P/S (50 μl per well). 50 μl was added into 1.2 ml-96 well plates. 50 μl of whole blood was then added in each well where either medium alone or JNK inhibitor has been previously added. Whole blood was incubated at 37° C., 5% CO2 for 60 min. 50 μl/well of ligands diluted in RPMI+P/S was prepared, corresponding to the final dilution 10 times concentrated. After 60 min of incubation, ligand was added; wells were then mixed by pipetting up and down the blood. Whole blood was incubated for 3 days at 37° C. (wells were mixed by pipetting each well up and down once per day). At the end of incubation, plates were mixed and then centrifuged at 2500 rpm, 4° C. for 15 min in a pre-cooled centrifuge. Cytokine were then measured using standard Elisa kits. Results are expressed as pg/ml of supernatant of the measured cytokine.
A similar experiment was carried out with slight modifications. In the case of […] stimulation, CD3 antibody was coated at 2 μg/mL in PBS overnight at 4° C. The day of experiment, wells were washed three times with PBS and left in PBS until use at 37° C. CD28 antibody was added 1 h after SEQ ID NO: 172 at final concentration of 2 μg/mL; supernatants were collected after 3 days of stimulation.

[2] = system: human whole blood; assay: Cytokine release in human whole blood stimulated 4 hours with LPS or PMA+ionomycin; assay type: cell-based; conditions: human whole blood, 1, 3, 10 μM
Experimental: FIG. 18 JNK inhibition and IL-6 release in human whole blood. The JNK inhibitor with SEQ ID NO: 172 was added at three different concentrations, namely 1, 3 and 10 μM 1 h before whole blood stimulation with LPS (0.02 ng/mL) for 4 hours.
FIG. 19 JNK inhibition and IL-2 release in human whole blood. The JNK inhibitor with SEQ ID NO: 172 was added at three different concentrations, namely 1, 3 and 10 μM 1 h before whole blood stimulation with PMA+ionomycin (25/700 ng/mL, 50/800 ng/mL and 50/1000 ng/mL) for 4 hours.
Whole blood is collected from anesthetized rat or human healthy volunteers using a venipuncture connected to a pre-labeled vacuum tube containing sodium citrate. Tubes are gently mixed by inversion 7-8 times; and are then kept at RT until stimulation. JNK inhibitor of SEQ ID NO: 172 is prepared 6 times concentrated in PBS, and 30 μl/well of mix is added into 96-well plate. Whole blood is diluted by 1:2 in PBS and 120 μl of diluted blood is added in each well where either PBS alone or JNK inhibitor of SEQ ID NO: 172 has been previously added. Whole blood is incubated at 37° C.; 85 rpm (Stuart Orbital incubator SI500) for 60 min. Activators (LPS) are the prepared, 30 μl/well of LPS, 6 times concentrated. After 60 min incubation, LPS is added to the blood, blood is mixed by pipetting up and down, and then kept for 4 h under agitation (85 rpm), at 37° C. After the 4 h incubation, the plates are centrifuged at about 770 g, 4° C. for 15 min in a pre-cooled centrifuge. Supernatants are finally collected and kept at −20° C. until cytokine measurement. Cytokine (IL-6, IL-2, IFNγ and TNFα) were then measured using standard Elisa kits (e.g. from R&D Systems: DuoSet Elisas; or from BD Biosciences: BD Opteia Set Elisa). Results are expressed as pg/ml of supernatant of the measured cytokine.
A similar experiment was conducted with PMA+ionomycin instead of LPS as activator/stimulant.

CC(C)C[C@H](NC(=O)[C@H](CC(N)=O)NC(=O)[C@H](CC(C)C)NC(=O)[C@@H](NC(=O)[C@@H](C)NC(=O)[C@@H]1CCCN1C(=O)[C@H](CCCNC(=N)N)NC(=O)[C@@H](CCCCN)NC(=O)[C@@H]1CCCN1C(=O)[C@H](CCCNC(=N)N)NC(=O)[C@@H](CCCNC(=N)N)NC(=O)[C@H](CCCNC(=N)N)NC(=O)[C@H](CCCNC(=N)N)NC(=O)[C@H](CCC(N)=O)NC(=O)[C@@H](CCCNC(=N)N)NC(=O)[C@H](CCCNC(=N)N)NC(=O)[C@H](CCCCN)NC(=O)[C@H](CCCCN)NC(=O)[C@H](N)CCCNC(=N)N)[C@@H](C)O)C(=O)N[C@H](Cc1ccccc1)C(N)=O [SEQ ID NO: 172, rKKRrQRRrRPkRPaTLNLf] (H-[dR]KKR[dR]QRR[dR]RP[dK]RP[dA]TLNL[dF]-NH2)
CD3/CD28-induced TNF-α release ([1]; CD3+/-CD28 antibodies 2 μg/mL): reduce the CD3/CD28-induced TNF-α release in a dose-dependent manner
PHA-L-induced IL-2 release ([1]; PHA-L 5 μg/mL): reduce the PHA-L-induced IL-2 release in a dose-dependent manner
PHA-L-induced TNF-α release ([1]; PHA-L 5 μg/mL): reduce the PHA-L-induced TNF-α release in a dose-dependent manner
PMA+ionomycin-induced IFN-γ release [2]: reduce the PMA+ionomycin-induced IFN-γ release in a dose-dependent manner
PMA+ionomycin-induced IL-2 release [2]: reduce the PMA+ionomycin-induced IL-2 release in a dose-dependent manner
PMA+ionomycin-induced TNF-α release [2]: reduce the PMA+ionomycin-induced TNF-α release in a dose-dependent manner
LPS-induced IL-6 release ([2]; LPS 0.02 ng/mL): reduce the LPS-induced IL-6 release in a dose-dependent manner
